Data reported in article PMC6268022, “Substituted N-Benzylpyrazine-2-carboxamides: Synthesis and Biological Evaluation ^†” (Molecules, 2012).
In brackets after ≈: the same amount, converted by molar mass. Like-named read-outs stand apart in the source and are kept apart here.

Legend:
[1] = tested on: photosynthetic electron transport (PET) in spinach chloroplasts; test: Inhibition of photosynthetic electron transport (oxygen evolution rate) in spinach chloroplasts; type: biochemical, Spinacia oleracea L.; details: DCPIP photoreduction, pH 7.2
Procedure: All studied compounds were evaluated for their photosynthetic electron transport (PET) inhibition in spinach chloroplasts, which was reflected in the inhibition of oxygen evolution rate. The photosynthesis-inhibiting activity of the compounds has been expressed as IC50 values. Compounds 4, 5, 7 and 8 were not tested due to their low solubility in tested medium.
Chloroplasts were prepared from spinach (Spinacia oleracea L.) according to Masarovičová and Kráľová [31]. The inhibition of photosynthetic electron transport (PET) in spinach chloroplasts was determined spectrophotometrically (Genesys 6, Thermo Scientific, Madison, WI, USA) using an artificial electron acceptor 2,6-dichlorophenol-indophenol (DCPIP) according to Kráľová et al. and the rate of photosynthetic electron transport (PET) was monitored as a photo-reduction of DCPIP. The measurements were carried out in a phosphate buffer (0.02 mol/L, pH 7.2) containing sucrose (0.4 mol/L), MgCl2 (0.005 mol/L) and NaCl (0.015 mol/L). The chlorophyll content was 30 mg/L in these experiments and the samples were irradiated (~100 W/m^2) from a 10 cm distance with halogen lamp (250 W) using a 4 cm water filter to prevent warming of the samples (suspension temperature 22 °C). The studied compounds were dissolved in DMSO due to their limited water solubility. […] The inhibitory efficiency of the studied compounds was expressed as the IC50 values, i.e., molar concentration of the compounds causing 50% decrease in the oxygen evolution relative to the untreated control.

[2] = tested on: M. tuberculosis H37Rv CNCTC My 331/88; test: In vitro antimycobacterial microdilution panel method; type: cell-based; details: Mycobacterium tuberculosis, 336 h
M. avium CNCTC My 80/72 = test: as above; type: cell-based; details: Mycobacterium avium, 336 h; CNCTC My 80/72, pH 6.0, 14 days
M. avium CNCTC My 152/73 = test: as above; type: cell-based; details: Mycobacterium avium, 336 h; CNCTC My 152/73, pH 6.0, 14 days
[3] = tested on: M. kansasii CNCTC My 235/80; test: as above; type: cell-based; details: Mycobacterium kansasii, 144 h; CNCTC My 235/80, pH 6.0, 6 days
[4] = tested on: Trichophyton mentagrophytes 445; test: In vitro antifungal microdilution broth method; type: cell-based; details: RPMI 1640 pH 7.0, 35 °C; for MIC: read-out: TM MIC
Procedure: The Department of Medical and Biological Sciences at the Faculty of Pharmacy in Hradec Králové, Charles University in Prague, Czech Republic, performed the antifungal susceptibility assays, which was carried out using microdilution broth method. Compounds were dissolved in DMSO and diluted in a twofold manner with RPMI 1640 medium with glutamine buffered to pH 7.0 (3-morpholinopropane-1-sulfonic acid). […] Drug-free controls were included. […] The MICs were determined after 24 and 48 h, respectively after 72 and 120 h for Trichophyton mentagrophytes (TM), of static incubation in dark at 35 °C. Tested species: […]

[5] = HPLC lipophilicity determination (capacity factor k / log k); details: RP-HPLC, C18, MeOH 70%/H2O 30%, 30 °C
Procedure: The separation process was controlled by Agilent ChemStation, version B.04.02 extended by spectral module (Agilent Technologies Inc.). A solution of MeOH (HPLC grade, 70%) with H2O (HPLC-Milli-Q Grade, 30%) was used as mobile phase. The total flow of the column was 1.0 mL/min, injection 20 µL, column temperature 30 °C. 210 nm as detection wavelength and 270 nm as monitor wavelength were chosen. The KI methanol solution was used for the dead time (TD) determination. Retention times (TR) of synthesized compounds were measured in minutes. The capacity factors k were calculated using Microsoft Excel according to formula k = (TR − TD)/TD, where TR is the retention time of the solute and TD denotes the dead time obtained via an unretained analyte. Log k, calculated from the capacity factor k, is used as the lipophilicity index converted to log P scale.

[6] = tested on: pigment-protein complexes in photosystem 2; test: Fluorescence of chlorophyll a in spinach chloroplasts; type: biochemical, Spinacia oleracea L.; details: λex = 436 nm, 0-0.42 mmol/L
Text: The effects of the studied compounds on the photosynthetic apparatus of spinach chloroplasts were investigated by studying chlorophyll a (Chla) fluorescence. […] The extent of perturbation of chlorophyll a-protein complexes in the thylakoid membrane was reflected as decreased fluorescence of the pigment (see Figure 3B). Similar decrease of Chla fluorescence in plant chloroplasts was also observed previously after treatment with substituted benzanilides and salicyanilides. The fluorescence emission spectra of chlorophyll a (Chla) and aromatic amino acids in spinach chloroplasts were recorded on fluorescence spectrophotometer F-2000 (Hitachi, Tokyo, Japan) using excitation wavelength λex = 436 nm for monitoring fluorescence of Chla and λex = 275 nm for monitoring fluorescence of aromatic amino acids, excitation slit 20 nm and emission slit 10 nm. The samples were kept in the dark 2 min before measuring. The phosphate buffer used for dilution of the chloroplast suspension was the same as described above. Due to low aqueous solubility the compounds were added to a chloroplast suspension in DMSO solution. The DMSO concentration in all samples was the same as in the control (10%). The chlorophyll concentration in chloroplast suspension was 10 mg/L.

[7] = MIC with respect to molecular weight, Šula's medium pH 6.0, 14 days, read-out: MIC M. tuberculosis H37Rv (value in parentheses)
[8] = Šula's medium pH 6.0, 37 °C, 14 days, read-out: MIC M. tuberculosis H37Rv
[9] = Trichophyton mentagrophytes, 445, 72 h, pH 7, evaluated after 72 h
[10] = Trichophyton mentagrophytes, 445, 120 h, pH 7, evaluated after 120 h

Row | Compound | IC50 [1] [µM] | MIC [2, 7] [µM] | MIC [2, 8] [µg/mL] | MIC (M. avium CNCTC My 80/72) [µg/mL] | MIC (M. avium CNCTC My 152/73) [µg/mL] | MIC [3] [µg/mL] | MIC [4, 9] [µM] | MIC [4, 10] [µM] | log k [5] | TM MIC ([4]; evaluated after 72 h) | chlorophyll a fluorescence emission [6]
1 | O=C(NCc1ccccc1)c1cnc(Cl)cn1 [Compound 1, N-Benzyl-5-chloropyrazine-2-carboxamide] | 1620 | 100 | 25 | 100 (≈ 404 µM) | 100 (≈ 404 µM) | 100 (≈ 404 µM) | 125 (≈ 31 µg/mL) | 125 (≈ 31 µg/mL) | 0.1862 |  | 
2 | O=C(NCc1cccc(C(F)(F)F)c1)c1cnc(Cl)cn1 [Compound 2, 5-Chloro-N-(3-trifluoromethylbenzyl)pyrazine-2-carboxamide] | 346 | 79 | 25 | 25 (≈ 79.2 µM) | 100 (≈ 317 µM) | 50 (≈ 158 µM) | 15.6 (≈ 4.93 µg/mL) | 15.6 (≈ 4.93 µg/mL) | 0.4384 | 15.62/15.62 µmol/L | decreased intensity of the emission band at 686 nm
3 | O=C(NCc1ccc(Cl)cc1)c1cnc(Cl)cn1 [Compound 3, 5-Chloro-N-(4-chlorobenzyl)pyrazine-2-carboxamide] | 604 | 44 | 12.5 | 100 (≈ 354 µM) | 100 (≈ 354 µM) | 100 (≈ 354 µM) | 125 (≈ 35.3 µg/mL) | 125 (≈ 35.3 µg/mL) | 0.4150 |  | 
4 | COc1ccc(CNC(=O)c2cnc(Cl)cn2)cc1 [Compound 4, 5-Chloro-N-(4-methoxybenzyl)pyrazine-2-carboxamide] |  | 90 | 25 | 100 (≈ 360 µM) | 50 (≈ 180 µM) | 100 (≈ 360 µM) | 250 (≈ 69.4 µg/mL) | 250 (≈ 69.4 µg/mL) | 0.1655 |  | 
5 | O=C(NCc1ccccc1)c1cncc(Cl)n1 [Compound 5, N-Benzyl-6-chloropyrazine-2-carboxamide] |  | 50 | 12.5 | 100 (≈ 404 µM) | 100 (≈ 404 µM) | 50 (≈ 202 µM) | 250 (≈ 61.9 µg/mL) | 500 (≈ 124 µg/mL) | 0.2002 |  | 
6 | O=C(NCc1ccc(Cl)cc1)c1cncc(Cl)n1 [Compound 7, 6-Chloro-N-(4-chlorobenzyl)pyrazine-2-carboxamide] |  | 44 | 12.5 | 100 (≈ 354 µM) | 12.5 (≈ 44.3 µM) | 100 (≈ 354 µM) | 125 (≈ 35.3 µg/mL) | 125 (≈ 35.3 µg/mL) | 0.4335 |  | 
7 | COc1ccc(CNC(=O)c2cncc(Cl)n2)cc1 [Compound 8, 6-Chloro-N-(4-methoxybenzyl)pyrazine-2-carboxamide] |  | 22 | 6.25 | 100 (≈ 360 µM) | 50 (≈ 180 µM) | 100 (≈ 360 µM) | 500 (≈ 139 µg/mL) | 500 (≈ 139 µg/mL) | 0.1838 |  | 
8 | CC(C)(C)c1ncc(C(=O)NCc2ccccc2)nc1Cl [Compound 9, N-Benzyl-5-tert-butyl-6-chloropyrazine-2-carboxamide] | 7.4 | 82 | 25 | 25 (≈ 82.3 µM) | 50 (≈ 165 µM) | 100 (≈ 329 µM) | 250 (≈ 75.9 µg/mL) | 500 (≈ 152 µg/mL) | 1.1215 |  | 
9 | CC(C)(C)c1ncc(C(=O)NCc2cccc(C(F)(F)F)c2)nc1Cl [Compound 10, 5-tert-Butyl-6-chloro-N-(3-trifluoromethylbenzyl)pyrazine-2-carboxamide] | 36.3 | 16 | 6.25 | 25 (≈ 67.2 µM) | 25 (≈ 67.2 µM) | 25 (≈ 67.2 µM) | 250 (≈ 92.9 µg/mL) | 250 (≈ 92.9 µg/mL) | 1.3638 |  | 
10 | CC(C)(C)c1ncc(C(=O)NCc2ccc(Cl)cc2)nc1Cl [Compound 11, 5-tert-Butyl-6-chloro-N-(4-chlorobenzyl)pyrazine-2-carboxamide] | 13.4 | 36 | 12.5 | 50 (≈ 148 µM) | 50 (≈ 148 µM) | 50 (≈ 148 µM) | 250 (≈ 84.6 µg/mL) | 500 (≈ 169 µg/mL) | 1.3511 |  | 
11 | COc1ccc(CNC(=O)c2cnc(C(C)(C)C)c(Cl)n2)cc1 [Compound 12, 5-tert-Butyl-6-chloro-N-(4-methoxybenzyl)pyrazine-2-carboxamide] | 122 | 18 | 6.25 | 12.5 (≈ 37.4 µM) | 6.25 (≈ 18.7 µM) | 3.12 (≈ 9.36 µM) | 250 (≈ 83.5 µg/mL) | 500 (≈ 167 µg/mL) | 0.8071 |  | 
12 | OC(Cn1cncn1)(Cn1cncn1)c1ccc(F)cc1F [FLU, fluconazole, reference compound] |  |  |  |  |  |  | 1.95 (≈ 0.597 µg/mL) | 3.91 (≈ 1.2 µg/mL) |  |  | 
13 | NNC(=O)c1ccncc1 [INH, isoniazid, reference compound] |  | 11 | 1.56 | 12.5 to 25 (≈ 91.1 to 182 µM) | 12.5 (≈ 91.1 µM) | 12.5 (≈ 91.1 µM) |  |  |  |  | 
14 | NC(=O)c1cnccn1 [PZA, pyrazinamide, reference compound] |  | 50 to 101 | 6.25 to 12.5 | > 100 | > 100 | > 100 |  |  |  |  | 
